In patent US20220331414A1, “LIPID COMPOUNDS AND LIPID NANOPARTICLE COMPOSITIONS” (Suzhou Abogen Biosciences Co., Ltd., priority 2020, published 2022):
Blank lines part the entries; values can stand above or below the molecule they belong to.

Columns and labels:
[1] = Lipid nanoparticle size and polydispersity by dynamic light scattering; assay type: physicochemical; conditions: LNP of cationic lipid/DSPC/cholesterol/PEG-lipid 50:10:38.5:1.5 with mRNA
Experimental: (§1) Briefly, a cationic lipid provided herein, DSPC, cholesterol, and PEG-lipid were solubilized in ethanol at a molar ratio of 50:10:38.5:1.5, and mRNA were diluted in 10 to 50 mM citrate buffer, pH=4. The LNPs were prepared at a total lipid to mRNA weight ratio of approximately 10:1 to 30:1 by mixing the ethanolic lipid solution with the aqueous mRNA solution at a volume ratio of 1:3 using a microfluidic apparatus, total flow rate ranging from 9-30 mL/min. Ethanol were thereby removed and replaced by DPBS using dialysis. Finally, the lipid nanoparticles were filtered through a 0.2 μm sterile filter.
(§2) Lipid nanoparticle size were determined by dynamic light scattering using a Malvern Zetasizer Nano ZS (Malvern UK) using a 173° backscatter detection mode. The encapsulation efficiency of lipid nanoparticles were determined using a Quant-it Ribogreen RNA quantification assay kit (Thermo Fisher Scientific, UK) according to the manufacturer's instructions.

[2] = Encapsulation efficiency of lipid nanoparticles (Quant-it Ribogreen RNA assay); assay type: physicochemical; conditions: LNP of cationic lipid/DSPC/cholesterol/PEG-lipid 50:10:38.5:1.5 with mRNA
Experimental: as §1, §2

[3] = Apparent pKa of LNP formulations by TNS fluorescence assay; conditions: LNP cationic lipid/DSPC/cholesterol/DMG-PEG 50/10/38.5/1.5 mol %, pH 3 to 9
Experimental: TNS was prepared as a 300 uM stock solution in distilled water. LNP formulations were diluted to 0.1 mg/ml total lipid in 3 mL of buffered solutions containing 50 mM sodium citrate, 50 mM sodium phosphate, 50 mM sodium borate, and 30 mM sodium chloride where the pH ranged from 3 to 9. An aliquot of the TNS solution was added to give a final concentration of 0.1 mg/ml and following vortex mixing fluorescence intensity was measured at room temperature in a Molecular Devices Spectramax iD3 spectrometer using excitation and mission wavelengths of 325 nm and 435 nm. A sigmoidal best fit analysis was applied to the fluorescence data and the pKa value was measured as the pH giving rise to half—maximal fluorescent intensity.

polydispersity [1]: 0.264 | size (nm) [1]: 139.3 nm | Encapsulation Efficiency [2]: 92.5% | Apparant Pka [3]: 5.253
Structure (SMILES): CCCCCCCCC(CCCCCC)COP(=O)(NCCN(CCO)CCCCCC)OCC(CCCCCC)CCCCCCCC (centres unmarked) [Compound 56]

polydispersity [1]: 0.262 | size (nm) [1]: 111.7 nm | Encapsulation Efficiency [2]: 88.3% | Apparant Pka [3]: 7.33
Structure (SMILES): CCCCCCCCCOC(=O)CCCCCOP(=O)(NCCCN(C)C)OCCCCCC(=O)OCCCCCCCCC [Compound 6]

polydispersity [1]: 0.181 | size (nm) [1]: 116.8 nm | Encapsulation Efficiency [2]: 98.5% | Apparant Pka [3]: 9.07
Structure (SMILES): CCCCCCCCCOC(=O)CCCCCOP(=O)(NCCCCN(C)C)OCCCCCC(=O)OCCCCCCCCC [Compound 2]

polydispersity [1]: 0.122 | size (nm) [1]: 80.83 nm | Encapsulation Efficiency [2]: 99.6% | Apparant Pka [3]: 7.77
Structure (SMILES): CCCCCCCCCOC(=O)CCCCCCCOP(=O)(NCCCN(C)C)OCCCCCCCC(=O)OC(CCCCCCCC)CCCCCCCC (centres unmarked) [Compound 40]

polydispersity [1]: 0.1 | size (nm) [1]: 54.46 nm | Encapsulation Efficiency [2]: 102.3%
Structure (SMILES): CCCCCCCCC(CCCCCCCC)OC(=O)CCCCCCCOP(=O)(NCCN(C)C)OCCCCCCC (centres unmarked) [Compound 42]

polydispersity [1]: 0.196 | size (nm) [1]: 76.16 nm | Encapsulation Efficiency [2]: 98.3% | Apparant Pka [3]: 8.08
Structure (SMILES): CCCCCCCCC(CCCCCCCC)OC(=O)CCCCCCCOP(=O)(NCCCN(C)C)OCCCCCCC (centres unmarked) [Compound 43]

polydispersity [1]: 0.037 | size (nm) [1]: 138.5 nm | Encapsulation Efficiency [2]: 88.8% | Apparant Pka [3]: 5.644
Structure (SMILES): CCCCCCCCC(CCCCCC)COP(=O)(NCCN(CCO)CCCC)OCC(CCCCCC)CCCCCCCC (centres unmarked) [Compound 54]

polydispersity [1]: 0.094 | size (nm) [1]: 108.5 nm | Encapsulation Efficiency [2]: 45.9% | Apparant Pka [3]: 5.84
Structure (SMILES): CCCCCCCCC(CCCCCCCC)OC(=O)CCCCCCCOP(=O)(NCCN(C)C)OCCCCCCCC(=O)OC(CCCCCCCC)CCCCCCCC [Compound 38]

polydispersity [1]: 0.114 | size (nm) [1]: 54.72 nm | Encapsulation Efficiency [2]: 99.0% | Apparant Pka [3]: 6.85
Structure (SMILES): CCCCCCCCC(CCCCCC)COP(=O)(NCCN(C)CCO)OCC(CCCCCC)CCCCCCCC (centres unmarked) [Compound 46]

polydispersity [1]: 0.091 | size (nm) [1]: 63.97 nm | Encapsulation Efficiency [2]: 95.3% | Apparant Pka [3]: 6.20
Structure (SMILES): CCCCCCCCC(CCCCCCCC)OC(=O)CCCCCCCOP(=O)(NCCCN(C)C)OCCCCCCCC(=O)OC(CCCCCCCC)CCCCCCCC [Compound 36]

polydispersity [1]: 0.132 | size (nm) [1]: 62.03 nm | Encapsulation Efficiency [2]: 90.9% | Apparant Pka [3]: 5.615
Structure (SMILES): CCCCCCCCC(CCCCCC)COP(=O)(NCCN(CCO)CCCCC)OCC(CCCCCC)CCCCCCCC (centres unmarked) [Compound 55]

polydispersity [1]: 0.12 | size (nm) [1]: 63.18 nm | Encapsulation Efficiency [2]: 102.8%
Structure (SMILES): CCCCCCCCC(CCCCCC)COC(=O)CCCCCOP(=O)(NCCCN(C)C)OCCCCCC(=O)OCC(CCCCCC)CCCCCCCC (centres unmarked) [Compound 45]

polydispersity [1]: 0.1 | size (nm) [1]: 73.54 nm | Encapsulation Efficiency [2]: 96.3% | Apparant Pka [3]: 7.20
Structure (SMILES): CCCCCCCCC(CCCCCC)COP(=O)(NCCCN(C)C)OCC(CCCCCC)CCCCCCCC (centres unmarked) [Compound 7]

polydispersity [1]: 0.116 | size (nm) [1]: 138.3 nm | Encapsulation Efficiency [2]: 96.2% | Apparant Pka [3]: 6.94
Structure (SMILES): CCCCCCCCCCCCCOP(=O)(NCCCN(C)C)OCCCCCCCCCCCCC [Compound 10]

Encapsulation Efficiency [2]: 81.0% | Apparant Pka [3]: 4.924
Structure (SMILES): CCCCCCCCCCC(CCCCCCCCCC)COP(=O)(NCCN(CC)CC)OCC(CCCCCCCCCC)CCCCCCCCCC [Compound 86]

polydispersity [1]: 0.166 | size (nm) [1]: 104.3 nm | Encapsulation Efficiency [2]: 48.8% | Apparant Pka [3]: 4.55
Structure (SMILES): CCCCCCCCC(CCCCCCCC)OC(=O)CCCCCCCOP(=O)(NCCCN(C)C)NCCCN(C)C [Compound 37]

polydispersity [1]: 0.073 | size (nm) [1]: 119.8 nm | Encapsulation Efficiency [2]: 61.6% | Apparant Pka [3]: 5.42
Structure (SMILES): CCCCCCCCCCCCCOP(=O)(NCCN1CCN(C(C)=O)CC1)OCCCCCCCCCCCCC [Compound 17]

polydispersity [1]: 0.245 | size (nm) [1]: 62.7 nm | Encapsulation Efficiency [2]: 99.9% | Apparant Pka [3]: 9.42
Structure (SMILES): CCCCCCCCCCCCCOP(=O)(NCCCN1CCCCC1)OCCCCCCCC(=O)OC(CCCCCCCC)CCCCCCCC (centres unmarked) [Compound 35]

polydispersity [1]: 0.077 | size (nm) [1]: 80.54 nm | Encapsulation Efficiency [2]: 101.1% | Apparant Pka [3]: 8.96
Structure (SMILES): CCCCCCCCCOP(=O)(NCCCN(C)C)OCCCCCCCC(=O)OC(CCCCCCCC)CCCCCCCC (centres unmarked) [Compound 32]

polydispersity [1]: 0.242 | size (nm) [1]: 56.48 nm | Encapsulation Efficiency [2]: 85.7% | Apparant Pka [3]: 5.526
Structure (SMILES): CCCCCCCCC(CCCCCCCC)COP(=O)(NCCN(CC)CC)OCC(CCCCCC)CCCCCC (centres unmarked) [Compound 90]

The next lines start with the molecule.

Structure (SMILES): CCCCCCCCC(CCCCCC)COP(=O)(NCCN(CCO)C1CCC1)OCC(CCCCCC)CCCCCCCC (centres unmarked) [Compound 57]
polydispersity [1]: 0.196 | size (nm) [1]: 78.22 nm | Encapsulation Efficiency [2]: 91.0% | Apparant Pka [3]: 5.325

Structure (SMILES): CCCCCCCCCCCCCOP(=O)(OCCCCCCCCCCCCC)N1CCC(N(C)C)CC1 [Compound 18]
polydispersity [1]: 0.074 | size (nm) [1]: 159.2 nm | Encapsulation Efficiency [2]: 94.3% | Apparant Pka [3]: 6.16

Structure (SMILES): CC/C=C\CCC(CC/C=C\CC)COP(=O)(NCCN(CC)CC)OCC(CC/C=C\CC)CC/C=C\CC [Compound 88]
polydispersity [1]: 0.205 | size (nm) [1]: 179.7 nm | Encapsulation Efficiency [2]: 49.0% | Apparant Pka [3]: 6.571

Structure (SMILES): CCCCCCCCCOP(=O)(OCCCCCCCCC)OCCCN(C)C [Compound 8]
polydispersity [1]: 0.187 | size (nm) [1]: 56.41 nm | Encapsulation Efficiency [2]: 93.2% | Apparant Pka [3]: 8.10

Structure (SMILES): CCCCCCCC(CCCCCCC)COP(=O)(NCCN(CC)CC)OCC(CCCCCCC)CCCCCCC [Compound 84]
polydispersity [1]: 0.175 | size (nm) [1]: 52.13 nm | Encapsulation Efficiency [2]: 89.9% | Apparant Pka [3]: 5.484

Structure (SMILES): CCCCCCC(CCCCCC)COP(=O)(NCCN1CCCC1)OCC(CCCCCC)CCCCCC [Compound 83]
polydispersity [1]: 0.056 | size (nm) [1]: 82.63 nm | Encapsulation Efficiency [2]: 87.8% | Apparant Pka [3]: 6.319

Structure (SMILES): CCCCCCCCC(CCCCCC)COP(=O)(NCCCN1CCCCCC1)OCC(CCCCCC)CCCCCCCC (centres unmarked) [Compound 29]
polydispersity [1]: 0.09 | size (nm) [1]: 84.8 nm | Encapsulation Efficiency [2]: 58.9% | Apparant Pka [3]: 5.51

Structure (SMILES): CCCCCCCCC(CCCCC)COP(=O)(NCCN(CC)CC)OCC(CCCCC)CCCCCCCC (centres unmarked) [Compound 72]
polydispersity [1]: 0.154 | size (nm) [1]: 73.94 nm | Encapsulation Efficiency [2]: 95.6% | Apparant Pka [3]: 5.86

Structure (SMILES): CCCCCCCCC(CCCCCC)COP(=O)(NCCN(CC)CC)OCC(CCCCCC)CCCCCCCC (centres unmarked) [Compound 49]
polydispersity [1]: 0.191 | size (nm) [1]: 58.02 nm | Encapsulation Efficiency [2]: 95.1% | Apparant Pka [3]: 6.47

Structure (SMILES): CCCCCCCCCCCCCOP(=O)(NC1CCN(C2CCOCC2)CC1)OCCCCCCCCCCCCC [Compound 16]
polydispersity [1]: 0.113 | size (nm) [1]: 305.4 nm | Encapsulation Efficiency [2]: 79.9% | Apparant Pka [3]: 7.75

Structure (SMILES): CCCCCCCCC(CCCCCC)COP(=O)(NCCN(C(C)C)C(C)C)OCC(CCCCCC)CCCCCCCC (centres unmarked) [Compound 48]
polydispersity [1]: 0.094 | size (nm) [1]: 73.81 nm | Encapsulation Efficiency [2]: 93.48%

Structure (SMILES): CCCCCCCC(CCCCCCC)COP(=O)(NCCN1CCCC1)OCC(CCCCCCC)CCCCCCC [Compound 85]
polydispersity [1]: 0.153 | size (nm) [1]: 53.57 nm | Encapsulation Efficiency [2]: 71.7% | Apparant Pka [3]: 5.216

Structure (SMILES): CCCCCCCCCCCCCOP(=O)(OCCCCCCCCCCCCC)N1CC2(CCN(C)CC2)C1 [Compound 20]
polydispersity [1]: 0.068 | size (nm) [1]: 92.15 nm | Encapsulation Efficiency [2]: 94.2% | Apparant Pka [3]: 5.81

Structure (SMILES): CCCCCCCCC(CCCCCC)COP(=O)(NCCN1CC2CCCC2C1)OCC(CCCCCC)CCCCCCCC (centres unmarked) [Compound 61]
polydispersity [1]: 0.163 | size (nm) [1]: 69.3 nm | Encapsulation Efficiency [2]: 82.85%

Structure (SMILES): CCCCCCCCCOP(=O)(NCCCCN(C)C)OCCCCCCCCC [Compound 1]
polydispersity [1]: 0.074 | size (nm) [1]: 54.18 nm | Encapsulation Efficiency [2]: 90.3% | Apparant Pka [3]: 7.65

Structure (SMILES): CCCCCCCCC(CCCCCC)COP(=O)(NCCCN1CCC1)OCC(CCCCCC)CCCCCCCC (centres unmarked) [Compound 23]
polydispersity [1]: 0.234 | size (nm) [1]: 57.36 nm | Encapsulation Efficiency [2]: 100.4% | Apparant Pka [3]: 7.43

Structure (SMILES): CCCCCCCCC(CCCCCC)COP(=O)(NCCN1CCC(O)C1)OCC(CCCCCC)CCCCCCCC (centres unmarked) [Compound 63]
polydispersity [1]: 0.148 | size (nm) [1]: 53.85 nm | Encapsulation Efficiency [2]: 97.0% | Apparant Pka [3]: 6.892

Structure (SMILES): CCCCCCCCC(CCCCCC)COP(=O)(NCCN(CCCC)CCCC)OCC(CCCCCC)CCCCCCCC (centres unmarked) [Compound 51]
polydispersity [1]: 0.167 | size (nm) [1]: 88.45 nm | Encapsulation Efficiency [2]: 75.52% | Apparant Pka [3]: 6.66

Structure (SMILES): CCCCCCCCC(CCCCCC)COP(=O)(NCCN(CCC)CCC)OCC(CCCCCC)CCCCCCCC (centres unmarked) [Compound 50]
polydispersity [1]: 0.09 | size (nm) [1]: 93.25 nm | Encapsulation Efficiency [2]: 85.5%
